Assay results from patent publication US9573960B2, “Glioblastoma inhibiting compounds and their use” (Life & Brain GmbH, priority 2011, dated 2017).
Where a name gives a salt, the structure may show the parent alone. Read-outs that look alike come from different tables or passages of the source.

How the values were obtained:
[1] = tested on: four patient-specific primary GBM cultures; details: for effect on the primary GBM cells' metabolic activity: 1 μM
Experimental: Before screening, cell number was titrated for each cell line separately to ensure that cell proliferation remained in a linear-exponential phase throughout the experiment. 24 hours after seeding 2−3×10^3 cells/well into laminin/poly-L-ornithine coated 96-well plates, primary cultures were treated with 2 nM, 1 μM or 10 μM of each compound (stock solution 10 mM in DMSO). As a reference we treated cells with 50 μM and 500 μM temozolomide (TMZ, SigmaAldrich, Taufkirchen, Germany; stock solution of 100 mM in DMSO). Control cells were treated with 0.5-0.01% DMSO. Six days after application, cell viability was determined using the AlamarBlue® assay according to the manufacturers recommendations (Invitrogen, Karlsruhe, Germany). Fluorescence was measured using an Infinite200 microplate reader (Tecan, Crailsheim, Germany) at Xex=540 nm and Xem=590 nm. Experiments were performed in triplicates for each sample.
To identify cytotoxic and cytostatic compounds, we conducted in vitro drug-screening assays in four different patient-specific primary GBM cultures (see Table 1 for basic characterization of research specimens).
The compound library was screened at three different concentrations (10 μM, 1 μM, 2 nM). The relative metabolic activity was determined after a 5-day incubation with compounds. […] For reference, we applied 50 μM (reported plasma peak concentration) and 500 μM of temozolomide (TMZ, as described in Beier et al., 2008), the current standard chemotherapeutic GBM drug to our cells. […] However, “hits” in the setting of a primary screening were defined as a reduction of the relative metabolic activity under the level of 50% of DMSO-treated control cells.

[2] = tested on: #155 cells (primary cells from a patient with pharmacoresistent epilepsy); test: Drug screening, AlamarBlue assay in #155 control cells; type: cell-based, human; details: 1 μM
Experimental: (§1) Experiments were performed in triplicates for each sample.
As an alternative control, primary cells were evaluated, which were obtained from a patient suffering from pharmacoresistent epilepsy (patient #155).

glioma cell line U87 = test: Drug screening, AlamarBlue assay in U87; type: cell-based; details: for inhibition at 1 µM: Glioma cell, 144 h, read-out: reduction of the relative metabolic activity of U87
Experimental: as §1
For comparison with our four patient-specific primary GBM cell specimens, we used the commercially available glioma cell line U87 that is frequently investigated in drug discovery settings (FIG. 2).

[3] = tested on: GBM primary cells under non-adherent conditions (neurospheres); test: Pristimerin in 3D culture, non-adherent growth conditions (ICM50); type: cell-based; details: Homo sapiens, single dose, specimens 046, 078, 106
From the text: FIG. 11: Inhibition of GBM primary cells under adherent (solid line) vs. non-adherent (dotted line) conditions. Results represent the mean of triplicate-well-analysis for 3 different specimens at each concentration (046, 078, 106)
The GBM-inhibitory activity of Pristimerin was confirmed in 3D culture systems, i.e. non-adherent growth conditions (FIG. 11). Under anchorage-withdrawal, GBM cells form neurospheres, and investigation of their metabolic response patterns indicated a more resistant phenotype.

[4] = tested on: GBM primary cells (035, 046); test: Long-term monitoring of cell confluency (CellaVista); type: cell-based, human; details: single dose 1 μM, post compound application
Experimental: FIG. 8: Long-term monitoring of cellular confluency post application of 1 μM pristimerin (dotted lines) in two independent GBM primary cell culture experiments (035=triangle; 046=squares) (solid line, 0.1% DMSO). Live cell-imaging was performed using the CellaVista system according to its specifications (Roche Diagnostics).
We used the CellaVistasystem (Roche Diagnostics, Mannheim) for monitoring of cell confluency as a surrogate analysis tool.

[5] = tested on: patient-specific GBM primary cultures; test: AnnexinV-based FACS analysis of apoptosis; type: cell-based, human; details: 1 μM, 5-day exposure, in 7 out of 8 cultures
Experimental: […] 1×10^5 cells were sedimented by centrifugation, resuspended in […] AnnexinV buffer (BD Bioscience, Heidelberg, Germany) and incubated with 5 μl Annexin V-FITC (BD Bioscience, Heidelberg, Germany) for 1 h at RT. To distinguish between living and dead cells, labeling with 1.2 μg/ml bisbenzimide H33258 (Invitrogen, Karlsruhe, Germany) was used. Expression was determined using standard conditions in a LSRII equipped with FACSDiva Software (BD Bioscience, Heidelberg, Germany). For each measurement, 20.000 cells were counted. Annexin V positive cells, Annexin V and H33258 positive cells and H33258 positive cells were termed avital cells.
These effects could be validated as compound-specific, based on analysis of Pristimerin purchased from an independent supplier that yielded similar results (Sigma; FIG. 1b). For further experimentation, pristimerin was applied at 1 μM concentrations (FIG. 1c). […] In 7 out of 8 investigated patient-specific GBM primary cultures more than 50% of all cells could be classified as avital (FIG. 6; ***p<0.001, compared to their respective DMSO-treated control cells).

[6] = tested on: clonogenic, neurosphere-forming GBM cells; test: Neurosphere assay after pristimerin; type: cell-based, human; details: single dose 1 μM, cases 046, 078, 106
Experimental: Based on previous investigations (Scheffler et al., 2005), a single cell suspension of 1×10^4 cells/cm^2 was diluted in 1% methylcellulose-containing PROL media provided with 20 ng/ml EGF/bFGF, and inoculated into nonadhesive culture dishes. 10 ng/ml EGF/bFGF was then added every other day. Neurospheres were quantified at 21 days in culture, triturated to a single cell suspension, which was used for plating under identical conditions and analysis of the formation of secondary or higher degree neurospheres. For analysis of multipotency, a representative fraction of 3° neurospheres were used. Neurospheres were plated onto laminin/poly-L-ornithine coated glass coverslips and, after attachment, provided with PROL media devoid of mitogens to allow differentiation for 2-3 weeks in culture before PFA-fixation and immunofluorescence analysis.
Furthermore, a single dose of pristimerin decreased the frequency of clonogenic, i.e. neurosphere-forming cells by 30-60% (FIG. 9a,b). Depletion of clonogenic cells was never observed at concentrations of […]. Clonogenic cells were always able to selfrenew and form higher-degree neurospheres that gave rise to immature neurons and astrocytes (FIG. 9c). These findings indicate that Pristimerin is not selectively inhibiting GBM cancer stem cells. […]

[7] = tested on: patient-specific GBM primary cells; test: Pharmacodynamic analysis of pristimerin, AlamarBlue (ICM50); type: cell-based; details: Homo sapiens, 120 h
Experimental: For pharmacodynamic analyses of pristimerin and niclosamide 5×10^4 cells were plated in 12 well plates 24 h before they were treated with concentrations indicated. 5 days after the treatment, cell viability was monitored by the AlamarBlue® assay. Experiments were performed in triplicates. The ICM50 is the concentration of agent that reduced the metabolic activity by 50% under the experimental conditions.
Pristimerin induces apoptosis in GBM primary cells. […] Because the peak plasma concentration of pristimerin is not yet known, we investigated a range of concentrations between 70 nM and 10 μM (FIG. 5). Under these conditions, pristimerin is potently cytotoxic at median ICM50's (half maximal inhibitory concentration of metabolic activity) of approximately 500 nM (FIG. 5a,b,d)

GBM primary cells = test: Growth kinetic analysis (proliferation kinetics); type: cell-based, human; details: single dose 1 μM
Experimental: Five days after treatment in 6 cm dishes, 47,000 vital cells were plated into 3.5 cm laminin/poly-L-ornithine coated plastic dishes. 20 ng/ml EGF/bFGF were provided upon plating, and 10 ng/ml EGF/bFGF were added every other day thereafter. Four-to-six days later, adherent cells were trypsinized, harvested, counted, and plated at a density of 4.7×10^4 cells. This procedure was repeated for 4-5 passages. Mean values are presented with standard error.
Cells surviving the application of Pristimerin expand linearly on a logarithmic scale. There is an initial delay of cell growth lasting for a maximum of 10 days. However, thereafter, every patient-specific GBM primary culture we investigated thus far continued to proliferate as well as their respective DMSO-control (FIG. 7).

[8] = in vivo; cited from earlier work

## O=C1C(Cl)=C(Cl)C(=O)c2c(O)ccc(O)c21 [2,3-dichloro-5,8-dihydroxynapthoquinone]
[1]
  effect on the primary GBM cells' metabolic activity: no significant effect
[2]
  effect on the metabolic activity of the #155 cells: diminished the metabolic activity of the #155 cells significantly

## CC[C@@]1(O)C(=O)OCc2c1cc1n(c2=O)Cc2cc3cc(O)ccc3nc2-1 [10-Hydroxycamptothecin]
[2]
  effect on the metabolic activity of the #155 cells: very little effect

## N=c1ccn2c(n1)O[C@H]1[C@H](O)[C@@H](CO)O[C@H]12 [Ancitabine hydrochloride]
Glioma cell line U87; 1 μM
  inhibition at 1 µM: ≤ 50%

## C[C@@]12C(=O)OC(=O)[C@]1(C)[C@H]1CC[C@@H]2O1 [Cantharidin]
[1]
  effect on the primary GBM cells' metabolic activity: no significant effect
[2]
  effect on the metabolic activity of the #155 cells: diminished the metabolic activity of the #155 cells significantly

## O=c1[nH]c(=O)n([C@H]2C[C@H](O)[C@@H](CO)O2)cc1F [Floxuridine]
[2]
  effect on the metabolic activity of the #155 cells: very little effect
Glioma cell line U87; 1 μM
  inhibition at 1 µM: ≤ 50%

## CN(Cc1cnc2nc(N)nc(N)c2n1)c1ccc(C(=O)N[C@@H](CCC(=O)O)C(=O)O)cc1 [Methotrexate]
[2]
  effect on the metabolic activity of the #155 cells: very little effect
Glioma cell line U87; 1 μM
  inhibition at 1 µM: ≤ 50%

## O=C(Nc1ccc([N+](=O)[O-])cc1Cl)c1cc(Cl)ccc1O [Niclosamide]
[2]
  effect on the metabolic activity of the #155 cells: very little effect
Glioma cell line U87; 1 μM
  inhibition at 1 µM: ≤ 50%

## COc1cc(O)c2c(c1)C(=O)c1cc(C)cc(O)c1C2=O [Physicion]
[1]
  effect on the primary GBM cells' metabolic activity: without affecting
Glioma cell line U87; 1 μM
  influence on the U87's metabolic activity: significant influence

## COc1cc([C@@H]2c3cc4c(cc3[C@H](O)[C@H]3COC(=O)[C@@H]23)OCO4)cc(OC)c1OC [Picropodophyllotoxin]
[2]
  effect on the metabolic activity of the #155 cells: very little effect
Glioma cell line U87
  inhibition at 1 µM: ≤ 50%

## COC(=O)[C@]1(C)CC[C@]2(C)CC[C@]3(C)C4=CC=C5C(=CC(=O)C(O)=C5C)[C@]4(C)CC[C@@]3(C)[C@@H]2C1 [Pristimerin]
[3]
  IC50: 1100 nM
[4]
  time before surviving cells take on proliferative activity: ≥ 10 days
[5]
  cells classified as avital: more than 50%
[6]
  decrease of frequency of clonogenic, neurosphere-forming cells: 30-60%
[7]; 70 nM to 10 μM, 5 days post application, read-out: median ICM50 (half maximal inhibitory concentration of metabolic activity)
  IC50: ~500 nM
[7]; Microsource compound, 5 days, read-out: median ICM50
  IC50: 580 nM
[7]; Sigma compound, 5 days, read-out: median ICM50
  IC50: 430 nM
[1]; case 023, 1 μM
  reduction of metabolic activity: 90%
[1]; case 035, 1 μM
  reduction of metabolic activity: 97%
[1]; case 046, 1 μM
  reduction of metabolic activity: 78%
[1]; case 106, 1 μM
  reduction of metabolic activity: 97%
Glioma cell line U87
  inhibition at 1 µM: ≤ 50%
GBM primary cells
  initial delay of cell growth: ≤ 10 days

## C=C(C)[C@H]1Cc2c(ccc3c2O[C@@H]2COc4cc(OC)c(OC)cc4[C@@H]2C3=O)O1 [Rotenone]
[2]
  effect on the metabolic activity of the #155 cells: very little effect
Glioma cell line U87
  inhibition at 1 µM: ≤ 50%

## Cn1nnc2c(C(N)=O)ncn2c1=O [TMZ, temozolomide]
[8]
  reported plasma peak concentration: 50 µM
[1]; 50 μM TMZ, mean of four patient-specific primary cultures
  reduction of relative metabolic activity: 17%
[1]; 500 μM TMZ, mean of four patient-specific primary cultures
  relative metabolic activity, level: 63%

## COc1cc([C@@H]2c3cc4c(cc3[C@@H](O[C@@H]3O[C@@H]5CO[C@@H](c6cccs6)O[C@H]5[C@H](O)[C@H]3O)[C@H]3COC(=O)[C@H]23)OCO4)cc(OC)c1O [Teniposide]
[2]
  effect on the metabolic activity of the #155 cells: very little effect
Glioma cell line U87; 1 μM
  inhibition at 1 µM: ≤ 50%

## Nc1nc2nc[nH]c2c(=S)[nH]1 [Thioguanine]
[2]
  effect on the metabolic activity of the #155 cells: very little effect
Glioma cell line U87; 1 μM
  inhibition at 1 µM: ≤ 50%

## CC[C@@]1(O)C(=O)OCc2c1cc1n(c2=O)Cc2cc3ccccc3nc2-1 [camptothecin]
[2]
  effect on the metabolic activity of the #155 cells: very little effect

## C=C1[C@@H](C)[C@H]2[C@H](Cc3ccccc3)NC(=O)[C@]23[C@H](OC(C)=O)/C=C/[C@@](C)(O)C(=O)[C@@H](C)C/C=C/[C@H]3[C@@H]1O [cytochalasin D]
[1]
  effect on the primary GBM cells' metabolic activity: no significant effect
[2]
  effect on the metabolic activity of the #155 cells: diminished the metabolic activity of the #155 cells significantly

## CC[C@H]1CN2CCc3cc(OC)c(OC)cc3[C@@H]2C[C@@H]1C[C@H]1NCCc2cc(OC)c(OC)cc21 [emetine]
[2]
  effect on the metabolic activity of the #155 cells: very little effect

## CC(=O)O[C@H]1C(=O)[C@@]2(C)[C@H]([C@H](OC(=O)c3ccccc3)[C@]3(O)C[C@H](OC(=O)[C@H](O)[C@@H](NC(=O)c4ccccc4)c4ccccc4)C(C)=C1C3(C)C)[C@]1(OC(C)=O)CO[C@@H]1C[C@@H]2O [paclitaxel]
[2]
  effect on the metabolic activity of the #155 cells: very little effect

## CCCCCCCCCCCCCC(=O)O[C@@H]1[C@@H](C)[C@@]2(O)[C@@H](C=C(CO)C[C@]3(O)C(=O)C(C)=C[C@@H]23)[C@@H]2C(C)(C)[C@]12OC(C)=O [phorbol myristate acetate]
[1]
  effect on the primary GBM cells' metabolic activity: no significant effect
[2]
  effect on the metabolic activity of the #155 cells: diminished the metabolic activity of the #155 cells significantly

## CC[C@]1(O)C[C@H]2CN(CCc3c([nH]c4ccccc34)[C@@](C(=O)OC)(c3cc4c(cc3OC)N(C=O)[C@H]3[C@@](O)(C(=O)OC)[C@H](OC(C)=O)[C@]5(CC)C=CCN6CC[C@]43[C@@H]65)C2)C1 [vincristine sulfate]
[2]
  effect on the metabolic activity of the #155 cells: very little effect
